Assay results taken from the NIST ThermoML archive (doi:10.1021/acs.jced.6b00178).
Several values for one entry are separate records, joined by “and”; a condition that tells them apart may be missing. Equal entries are not always repeated.

What was measured:
[1] = 100 kPa, Liquid; for viscosity: Concentric cylinders viscometry; for mass density: Vibrating tube method
[2] = xn = mol fraction of the nth substance listed; details: 100 kPa, Liquid; for viscosity: Concentric cylinders viscometry; for mass density: Vibrating tube method

CCCC[n+]1ccn(C)c1.O=S(=O)([N-]S(=O)(=O)C(F)(F)F)C(F)(F)F
[1]
Details	mass density	viscosity
283.15 K	1451.8 kg/m3	106.78 mPa·s and 106.77 mPa·s
288.15 K	1446.9 kg/m3	82.14 mPa·s and 82.16 mPa·s
293.15 K	1442.1 kg/m3	66.36 mPa·s and 64.53 mPa·s
298.15 K	1437.2 kg/m3	51.58 mPa·s and 51.6 mPa·s
303.15 K	1432.4 kg/m3	41.94 mPa·s and 41.93 mPa·s
308.15 K	1427.6 kg/m3	34.6 mPa·s and 34.59 mPa·s
313.15 K	1422.8 kg/m3 and 1422.9 kg/m3	29.48 mPa·s and 28.91 mPa·s
318.15 K	1418.1 kg/m3 and 1418.2 kg/m3	24.47 mPa·s and 24.46 mPa·s
323.15 K	1413.4 kg/m3 and 1413.5 kg/m3	20.93 mPa·s and 20.91 mPa·s
328.15 K	1408.7 kg/m3 and 1408.8 kg/m3	18.07 mPa·s and 18.05 mPa·s
333.15 K	1404.1 kg/m3 and 1404 kg/m3	15.95 mPa·s and 15.72 mPa·s
338.15 K	1399.4 kg/m3 and 1399.3 kg/m3	13.83 mPa·s and 13.8 mPa·s
343.15 K	1394.8 kg/m3 and 1394.7 kg/m3	12.23 mPa·s and 12.2 mPa·s
348.15 K	1390.2 kg/m3 and 1390.1 kg/m3	10.9 mPa·s and 10.86 mPa·s
353.15 K	1385.6 kg/m3 and 1385.5 kg/m3	9.985 mPa·s and 9.72 mPa·s
358.15 K	1381.1 kg/m3 and 1381 kg/m3	8.806 mPa·s and 8.754 mPa·s
363.15 K	1376.6 kg/m3 and 1376.4 kg/m3	7.98 mPa·s and 7.926 mPa·s

CCCC[n+]1ccn(C)c1.O=S(=O)([N-]S(=O)(=O)C(F)(F)F)C(F)(F)F + CC(=O)[O-].CCCCn1cc[n+](C)c1
[2], x1 = 1
Details	mass density [kg/m3]	viscosity [mPa·s]
283.15 K	1451.8	106.78
288.15 K	1446.9	82.14
293.15 K	1442.1	66.36
298.15 K	1437.2	51.58
303.15 K	1432.4	41.94
308.15 K	1427.6	34.6
313.15 K	1422.9	29.48
318.15 K	1418.2	24.47
323.15 K	1413.5	20.93
328.15 K	1408.8	18.07
333.15 K	1404.1	15.95
338.15 K	1399.4	13.83
343.15 K	1394.8	12.23
348.15 K	1390.2	10.9
353.15 K	1385.6	9.985
358.15 K	1381.1	8.806
363.15 K	1376.6	7.98

CCCC[n+]1ccn(C)c1.O=S(=O)([N-]S(=O)(=O)C(F)(F)F)C(F)(F)F + CCCCn1cc[n+](C)c1.COP(=O)([O-])OC
[2], x1 = 1
Details	mass density [kg/m3]	viscosity [mPa·s]
283.15 K	1451.8	106.78
288.15 K	1446.9	82.14
293.15 K	1442.1	66.36
298.15 K	1437.2	51.58
303.15 K	1432.4	41.94
308.15 K	1427.6	34.6
313.15 K	1422.9	29.48
318.15 K	1418.2	24.47
323.15 K	1413.5	20.93
328.15 K	1408.8	18.07
333.15 K	1404.1	15.95
338.15 K	1399.4	13.83
343.15 K	1394.8	12.23
348.15 K	1390.2	10.9
353.15 K	1385.6	9.985
358.15 K	1381.1	8.806
363.15 K	1376.6	7.98

CCCC[n+]1ccn(C)c1.O=S(=O)([N-]S(=O)(=O)C(F)(F)F)C(F)(F)F + CCCCn1cc[n+](C)c1.F[P-](F)(F)(F)(F)F
[2], x1 = 1
Details	mass density [kg/m3]	viscosity [mPa·s]
283.15 K	1451.8	106.77
288.15 K	1446.9	82.16
293.15 K	1442.1	64.53
298.15 K	1437.2	51.6
303.15 K	1432.4	41.93
308.15 K	1427.6	34.59
313.15 K	1422.8	28.91
318.15 K	1418.1	24.46
323.15 K	1413.4	20.91
328.15 K	1408.7	18.05
333.15 K	1404	15.72
338.15 K	1399.3	13.8
343.15 K	1394.7	12.2
348.15 K	1390.1	10.86
353.15 K	1385.5	9.72
358.15 K	1381	8.754
363.15 K	1376.4	7.926

CCCC[n+]1ccn(C)c1.O=S(=O)([N-]S(=O)(=O)C(F)(F)F)C(F)(F)F + CCCCn1cc[n+](C)c1.N#CN=C=[N-]
[2], x1 = 1
Details	mass density [kg/m3]	viscosity [mPa·s]
283.15 K	1451.8	106.77
288.15 K	1446.9	82.16
293.15 K	1442.1	64.53
298.15 K	1437.2	51.6
303.15 K	1432.4	41.93
308.15 K	1427.6	34.59
313.15 K	1422.8	28.91
318.15 K	1418.1	24.46
323.15 K	1413.4	20.91
328.15 K	1408.7	18.05
333.15 K	1404	15.72
338.15 K	1399.3	13.8
343.15 K	1394.7	12.2
348.15 K	1390.1	10.86
353.15 K	1385.5	9.72
358.15 K	1381	8.754
363.15 K	1376.4	7.926

CCCC[n+]1ccn(C)c1.O=S(=O)([N-]S(=O)(=O)C(F)(F)F)C(F)(F)F + CCCCn1cc[n+](C)c1.N#C[S-]
[2], x1 = 1
Details	mass density [kg/m3]	viscosity [mPa·s]
283.15 K	1451.8	106.78
288.15 K	1446.9	82.14
293.15 K	1442.1	66.36
298.15 K	1437.2	51.58
303.15 K	1432.4	41.94
308.15 K	1427.6	34.6
313.15 K	1422.9	29.48
318.15 K	1418.2	24.47
323.15 K	1413.5	20.93
328.15 K	1408.8	18.07
333.15 K	1404.1	15.95
338.15 K	1399.4	13.83
343.15 K	1394.8	12.23
348.15 K	1390.2	10.9
353.15 K	1385.6	9.985
358.15 K	1381.1	8.806
363.15 K	1376.6	7.98

CCCC[n+]1ccn(C)c1.O=S(=O)([N-]S(=O)(=O)C(F)(F)F)C(F)(F)F + CCCCn1cc[n+](C)c1.O=S(=O)([O-])C(F)(F)F
[2], x1 = 1
Details	mass density [kg/m3]	viscosity [mPa·s]
283.15 K	1451.8	106.78
288.15 K	1446.9	82.14
293.15 K	1442.1	66.36
298.15 K	1437.2	51.58
303.15 K	1432.4	41.94
308.15 K	1427.6	34.6
313.15 K	1422.9	29.48
318.15 K	1418.2	24.47
323.15 K	1413.5	20.93
328.15 K	1408.8	18.07
333.15 K	1404.1	15.95
338.15 K	1399.4	13.83
343.15 K	1394.8	12.23
348.15 K	1390.2	10.9
353.15 K	1385.6	9.985
358.15 K	1381.1	8.806
363.15 K	1376.6	7.98

CCCCn1cc[n+](C)c1.COP(=O)([O-])OC [1-butyl-3-methyl-1H-imidazolium dimethylphosphate]
[1]
Details	mass density [kg/m3]	viscosity [mPa·s]
283.15 K	1168.4	2315.6
288.15 K	1164.9	1454.6
293.15 K	1161.4	943.97
298.15 K	1157.9	641.71
303.15 K	1154.3	446.92
308.15 K	1150.9	319.33
313.15 K	1147.6	232.1
318.15 K	1144.3	174.7
323.15 K	1141	133.37
328.15 K	1137.8	103.62
333.15 K	1134.6	81.97
338.15 K	1131.4	65.62
343.15 K	1128.3	53.39
348.15 K	1125.1	44.01
353.15 K	1122	37.08
358.15 K	1118.9	30.94
363.15 K	1115.7	26.33

CCCCn1cc[n+](C)c1.F[B-](F)(F)F [1-butyl-3-methylimidazolium tetrafluoroborate] + CCCC[n+]1ccn(C)c1.O=S(=O)([N-]S(=O)(=O)C(F)(F)F)C(F)(F)F
[2], x2 = 0
Details	mass density [kg/m3]	viscosity [mPa·s]
283.15 K	1212.5	264.99
288.15 K	1208.8	192.43
293.15 K	1205.2	143.08
298.15 K	1201.6	108.74
303.15 K	1198	84.28
308.15 K	1194.5	66.52
313.15 K	1190.9	53.37
318.15 K	1187.4	43.47
323.15 K	1184	35.89
328.15 K	1180.5	30.01
333.15 K	1177	25.38
338.15 K	1173.6	21.68
343.15 K	1170.2	18.7
348.15 K	1166.8	16.26
353.15 K	1163.4	14.26
358.15 K	1160.1	12.59
363.15 K	1156.8	11.2
